# Test system: Testosterone
# Assay: Testosterone level in blood (serum CLIA) after repeated sc PEP-1
# Assay type: in vivo, SD rats
# Method: PEP-1 (peptide of SEQ ID NO: 1), lyophilized white powder, obtained according to the method mentioned in example 1 was dissolved in 0.9% of saline, considering the correction factor of PEP-1 (purity: 94.13%, content: 92.36%, correction factor: 1.15). 50 mg/mL stock solution was further diluted into 20 mg/mL, 2 mg/mL, and 1 mg/mL with 0.9% saline, and stored at 4° C. for a week until the use.
# The purpose of this example is to confirm the change of sexual hormones in blood from SD rats with 7 days repeated daily administration of SEQ ID NO: 1 peptide, PEP-1. This experiment followed the Ethics Regulation of Animal Test by KAMSI Inc. (Korea Animal Medical Science Institute). In addition, this experiment, Non-GLP experiment, referred to the MFDS (Ministry of Food and Drug Safety) notification; Agent 2013-40 (5th April 2013), Principles of Good Laboratory Practice (1997).
# SPF Rats (Crlj:CD(SD)) were purchased from ORIENTBio Inc. (Mokdong-ri, Buk-myeon, Gapyeong-gun, Gyeonggi-do, Republic of Korea). 75 male (6.5 weeks old and 190˜210 g) and 75 female (6.5 weeks old and 160˜180 g) rats were monitored for 4 days, and 64 of male and female rats (each) were selected for the experiment. Raising condition is as follows; 23±3° C. of temperature, […] of relative humidity, 10˜20 times/hr of number of air changes, 12 hours (8 a.m.˜8 p.m.) of lighting with 150˜300 Lux of intensity.
# 64 male and female […] (mentioned above) were divided into 8 groups. Administration regimen, for example, drugs, routes, dosages, and volumes were as follows:
# The detailed administration regimen is as follows; once a day, twice a day and twice a week in each experimental group. Injection initiated at 10 a.m. every day, and each rat was injected at one minute intervals. Rats in Group 9, 10, 13 and 14 were injected twice a week. Administration of high dose test agent preceded that of low dose. The volume of injection was calculated using recently measured weight of rats, and it was 5 mL/kg. Subcutaneous injection was performed as follows; assistant tilted the back of rat upward, and experimenter sterilized the back of rat with 70% alcohol, followed by subcutaneous injection of test agent with 26 G syringe.
# 1.4 mL of blood sample (0.7 mL of serum) was collected after measurement of weight (Day 0). Next day (1 Day), 1.4 mL of blood sample (0.7 mL of serum) was collected twice after injection of test agent (4 hrs and 8 hrs after administration of test agent). For next 6 days (Day 2˜Day 7), 1.4 mL of blood was extracted once everyday (4 hours after injection of test agent). Dose and volume of test agent of each group followed the Table 3, and injection time zone was same every day. Blood was extracted from the jugular vein, and left at room temperature for 30 minutes. Serum was separated using centrifugation (10,000 rpm for 5 minutes), and stored at −70±5° C. in Deep freezer until the use. Blood extraction from each subject was done in the same time zone every day.
# A CLIA (Chemi-Luminescence Immune Assay) Kit was used to analyze Testosterone, Estradiol E2, FSH (Follicle stimulating hormone), and LH (Luteinizing hormone). Analysis was completed within 48 hrs after blood extraction (Laboratory Medicine Department, Chung-Ang University Hospital), and detailed method is as follows; One-way ANOVA was used to verify the comparison between the vehicle and PEP-1, and between different doses of PEP-1. For further analysis, Duncan test was used as parametric test and Dunnett's test as non-parametric test. p<0.05 represents the statistical significance, and all statistical analysis was carried out with SPSS 10.1.
# Testosterone was analyzed using the samples prepared from example 2. 15 μL of serum was used for analysis. Fundamentals of analysis is competitive immunoassay based on direct chemi-luminescent. As mentioned in example 2, CLIA (Chemi-luminescence immune assay) Kit was used for Testosterone analysis, following the manufacture's protocol. […]
sequence,measurement,setting,value
"EARPALLTSRLRFIPK (listed as Homo sapiens) [PEP-1, hormone secretion modulator / GnRH analog]",Testosterone level in blood,"G3 Female 5 mg/kg sc 1/day x7, 7 days",2.91 ng/dL
same,Testosterone level in blood,"G4 Male 5 mg/kg sc 1/day x7, 4 hr",0.12 ng/dL
same,Testosterone level in blood,"G4 Male 5 mg/kg sc 1/day x7, 8 hr",0.06 ng/dL
same,Testosterone level in blood,"G4 Male 5 mg/kg sc 1/day x7, 2 days",0.04 ng/dL
same,Testosterone level in blood,"G4 Male 5 mg/kg sc 1/day x7, 3 days",0.06 ng/dL
same,Testosterone level in blood,"G4 Male 5 mg/kg sc 1/day x7, 4 days",0.15 ng/dL
same,Testosterone level in blood,"G4 Male 5 mg/kg sc 1/day x7, 5 days",0.13 ng/dL
same,Testosterone level in blood,"G4 Male 5 mg/kg sc 1/day x7, 6 days",0.19 ng/dL
same,Testosterone level in blood,"G4 Male 5 mg/kg sc 1/day x7, 7 days",0.19 ng/dL
same,Testosterone level in blood,"G4 Male 5 mg/kg sc 1/day x7, pre",0.2 ng/dL
same,Testosterone level in blood,"G6 Male 10 mg/kg sc 1/day x7, 4 hr",0.15 ng/dL
same,Testosterone level in blood,"G6 Male 10 mg/kg sc 1/day x7, 8 hr",0.01 ng/dL
same,Testosterone level in blood,"G6 Male 10 mg/kg sc 1/day x7, 2 days",0.01 ng/dL
same,Testosterone level in blood,"G6 Male 10 mg/kg sc 1/day x7, 3 days",0.05 ng/dL
same,Testosterone level in blood,"G6 Male 10 mg/kg sc 1/day x7, 4 days",0.12 ng/dL
same,Testosterone level in blood,"G6 Male 10 mg/kg sc 1/day x7, 5 days",0.1 ng/dL
same,Testosterone level in blood,"G6 Male 10 mg/kg sc 1/day x7, 6 days",0.12 ng/dL
same,Testosterone level in blood,"G6 Male 10 mg/kg sc 1/day x7, 7 days",0.11 ng/dL
same,Testosterone level in blood,"G6 Male 10 mg/kg sc 1/day x7, pre",0.13 ng/dL
same,Testosterone level in blood,"G8 Male 10 mg/kg sc 2/day x4, 4 hr",0.12 ng/dL
same,Testosterone level in blood,"G8 Male 10 mg/kg sc 2/day x4, 8 hr",0.04 ng/dL
same,Testosterone level in blood,"G8 Male 10 mg/kg sc 2/day x4, 2 days",0.01 ng/dL
same,Testosterone level in blood,"G8 Male 10 mg/kg sc 2/day x4, 3 days",0.07 ng/dL
same,Testosterone level in blood,"G8 Male 10 mg/kg sc 2/day x4, 4 days",0.05 ng/dL
same,Testosterone level in blood,"G8 Male 10 mg/kg sc 2/day x4, 5 days",0.18 ng/dL
same,Testosterone level in blood,"G8 Male 10 mg/kg sc 2/day x4, 6 days",0.08 ng/dL
same,Testosterone level in blood,"G8 Male 10 mg/kg sc 2/day x4, 7 days",0.12 ng/dL
same,Testosterone level in blood,"G8 Male 10 mg/kg sc 2/day x4, pre",0.17 ng/dL
same,Testosterone level in blood,"G9 Female 10 mg/kg sc 2/week x2 (days 1,7), 4 hr",7.92 ng/dL
same,Testosterone level in blood,"G9 Female 10 mg/kg sc 2/week x2 (days 1,7), 8 hr",7.57 ng/dL
same,Testosterone level in blood,"G9 Female 10 mg/kg sc 2/week x2 (days 1,7), 2 days",0.9 ng/dL
same,Testosterone level in blood,"G9 Female 10 mg/kg sc 2/week x2 (days 1,7), 3 days",1.05 ng/dL
same,Testosterone level in blood,"G9 Female 10 mg/kg sc 2/week x2 (days 1,7), 4 days",1.21 ng/dL
same,Testosterone level in blood,"G9 Female 10 mg/kg sc 2/week x2 (days 1,7), 5 days",1.73 ng/dL
same,Testosterone level in blood,"G9 Female 10 mg/kg sc 2/week x2 (days 1,7), 6 days",1.67 ng/dL
same,Testosterone level in blood,"G9 Female 10 mg/kg sc 2/week x2 (days 1,7), 7 days",9.43 ng/dL
same,Testosterone level in blood,"G9 Female 10 mg/kg sc 2/week x2 (days 1,7), pre",2.3 ng/dL
same,Testosterone level in blood,"G10 Male 10 mg/kg sc 2/week x2 (days 1,7), 4 hr",0.16 ng/dL
same,Testosterone level in blood,"G10 Male 10 mg/kg sc 2/week x2 (days 1,7), 8 hr",0.02 ng/dL
same,Testosterone level in blood,"G10 Male 10 mg/kg sc 2/week x2 (days 1,7), 2 days",0 ng/dL
same,Testosterone level in blood,"G10 Male 10 mg/kg sc 2/week x2 (days 1,7), 3 days",0.06 ng/dL
same,Testosterone level in blood,"G10 Male 10 mg/kg sc 2/week x2 (days 1,7), 4 days",0.17 ng/dL
same,Testosterone level in blood,"G10 Male 10 mg/kg sc 2/week x2 (days 1,7), 5 days",0.08 ng/dL
same,Testosterone level in blood,"G10 Male 10 mg/kg sc 2/week x2 (days 1,7), 6 days",0.1 ng/dL
same,Testosterone level in blood,"G10 Male 10 mg/kg sc 2/week x2 (days 1,7), 7 days",0.13 ng/dL
same,Testosterone level in blood,"G10 Male 10 mg/kg sc 2/week x2 (days 1,7), pre",0.15 ng/dL
same,Testosterone level in blood,"G11 Female 100 mg/kg sc 1/day x7, 4 hr",7.73 ng/dL
same,Testosterone level in blood,"G11 Female 100 mg/kg sc 1/day x7, 8 hr",7.41 ng/dL
same,Testosterone level in blood,"G11 Female 100 mg/kg sc 1/day x7, 2 days",3.92 ng/dL
same,Testosterone level in blood,"G11 Female 100 mg/kg sc 1/day x7, 3 days",1.55 ng/dL
same,Testosterone level in blood,"G11 Female 100 mg/kg sc 1/day x7, 4 days",0.63 ng/dL
same,Testosterone level in blood,"G11 Female 100 mg/kg sc 1/day x7, 5 days",0.55 ng/dL

# From patent US10561703B2, “Method of modulating sex hormone levels using a sex hormone secretion modulator” (GEMVAX & KAEL CO., LTD., priority 2013, dated 2020)
